Experimental data published in patent US9157105B2, “Biosynthesis of CMP-legionaminic acid from fructose-6-P, and respective pathway intermediates, using novel GDP-linked precursors” (priority 2008, dated 2015).

Legend:
[1] = target: T1, His6GlmU (Cj0821, N-acetyltransferase) (Campylobacter jejuni subsp. jejuni serotype O:2, UniProt Q9PPA2); assay: His6GlmU N-acetylation reaction (CE-MS); type: biochemical, Campylobacter jejuni 11168; settings: 1 mM substrate, 1.2 mM acetyl-CoA
T1 construct: made in house; host or cells: E. coli BL21[DE3]
Protocol: (§1) Enzymatic reactions were performed for 4.5 h at 37° C., and then overnight at 25° C., with approximately 200 μg ml^−1 respective protein concentration using chemicals from Sigma (unless otherwise indicated). GDP-glucosamine biosynthesis. The ‘one-pot’ enzymatic synthesis of GDP-GlcN from Fru-6-P (I→IV) was accomplished using a 3 ml reaction containing His6PtmF, PtmAHis6, PgmLHis6, His6PtmE, 5 mM Fru-6-P (I), 10 mM L-Gln, 1 mM DTT, 5 mM MgCl2, 0.8 U ml^−1 pyrophosphatase, and 2.5 mM GTP in 25 mM Tris pH 7.5. Large-scale enzymatic synthesis of GDP-GlcN (IV) was accomplished using a 12 ml reaction containing 50 mM Tris pH 7.5, 1 mM GTP, 1 mM MgCl2, 0.8 U ml^−1 pyrophosphatase, 1.2 mM GlcN-1-P (III) and approximately 4.8 mg of His6PtmE. The large-scale enzymatic synthesis of GDP-GlcNAc was performed similar to that above, except the scale was increased five-fold and GlcNAc-1-P was used in place of GlcN-1-P (III). […] In addition, the substrate flexibility of His6LegG was assessed using a 300 μl reaction containing 40 μg His6LegG, 25 mM sodium phosphate pH 7.3, 25 mM NaCl, and 0.75 mM UDP-2,4-diacetamido-2,4,6-trideoxy-α-D-Glc, with incubation at 37° C. for 1.5 h, and then overnight at 25° C. […] Quantification of NDP-sugar preparations was determined using the molar extinction coefficients of CMP (ε260=7,400), GDP (ε260=11,500), TDP (ε260=8,700), and UDP (ε260=10,000). […]

[2] = tested on: LegB (Cj1319, 4,6-dehydratase); assay: LegB C4,6 dehydratase reaction with NDP-sugars; type: biochemical, Campylobacter jejuni 11168
Protocol: (§2) Enzymatic reactions were performed for 4.5 h at 37° C., and then overnight at 25° C., with approximately 200 μg ml^−1 respective protein concentration using chemicals from Sigma (unless otherwise indicated). GDP-glucosamine biosynthesis. The ‘one-pot’ enzymatic synthesis of GDP-GlcN from Fru-6-P (I→IV) was accomplished using a 3 ml reaction containing His6PtmF, PtmAHis6, PgmLHis6, His6PtmE, 5 mM Fru-6-P (I), 10 mM L-Gln, 1 mM DTT, 5 mM MgCl2, 0.8 U ml^−1 pyrophosphatase, and 2.5 mM GTP in 25 mM Tris pH 7.5. Large-scale enzymatic synthesis of GDP-GlcN (IV) was accomplished using a 12 ml reaction containing 50 mM Tris pH 7.5, 1 mM GTP, 1 mM MgCl2, 0.8 U ml^−1 pyrophosphatase, 1.2 mM GlcN-1-P (III) and approximately 4.8 mg of His6PtmE. The large-scale enzymatic synthesis of GDP-GlcNAc was performed similar to that above, except the scale was increased five-fold and GlcNAc-1-P was used in place of GlcN-1-P (III). Assessment of His6PtmE substrate specificity was accomplished using 9 reactions, 80 μl each, containing 50 mM Tris pH 7.5, 2 mM MgCl2, 50 μg His6PtmE, and various combinations of 10 mM sugar-1-P (GalN-1-P, GlcN-1-P or GlcNAc-1-P) and 0.2 mM NTP (CTP, GTP, or TTP). Conversion of GDP-GlcN to GDP-GlcNAc. The His6GlmU reaction was performed using 1 mM GDP-GlcN (IV), 1.2 mM acetyl-CoA and His6GlmU in 25 mM sodium phosphate pH 7.8, 25 mM NaCl, 10 mM β-mercaptoethanol. In addition, a control reaction was performed containing 1 mM GlcN-1-P (III) instead of IV. Biosynthesis of legionaminic acid from GDP-GlcNAc. The stepwise enzymatic synthesis of intermediates or products was accomplished in 2 stages (V→VI→VII→VIII, and then VIII→IX→X) using 1 mM of V, 0.5 mM NAD, 0.8 mM PLP, 8 mM L-Glu, 1.2 mM acetyl-CoA, 1.2 mM PEP, LegBHis6, His6LegC, His6LegH, His6LegG, and His6LegI as appropriate, in 25 mM sodium phosphate pH 7.3, 25 mM NaCl. Assessment of His6LegG activity involved monitoring the reaction kinetics by ^1H NMR (see NMR spectroscopy) for 75 min using 0.75 mM GDP-2,4-diacetamido-2,4,6-trideoxy-α-D-Glc (VIII), 4 μg His6LegG in 200 μl of 25 mM sodium phosphate pH 7.3, 25 mM NaCl at 25° C. In addition, the substrate flexibility of His6LegG was assessed using a 300 μl reaction containing 40 μg His6LegG, 25 mM sodium phosphate pH 7.3, 25 mM NaCl, and 0.75 mM UDP-2,4-diacetamido-2,4,6-trideoxy-α-D-Glc, with incubation at 37° C. for 1.5 h, and then overnight at 25° C. Biosynthesis of CMP-legionaminic acid. The CMP-activation of legionaminic acid (X→XI) was performed using a 20 ml reaction containing approximately 0.2 mM of X, 50 mM MgCl2, 3 mM CTP, and 15 mg of LegFHis6 in 25 mM sodium phosphate pH 7.8, 25 mM NaCl, with incubation at 37° C. for 5 h, and then 25° C. for 72 h. Metabolite purification. Typically, reactions were passed through an Amicon Ultra-15 (10,000 molecular weight cut-off) or Ultra-4 (5,000 molecular weight cut-off) filter membrane before analysis. As required, NDP-sugar preparations (GDP-Glc, GDP-GlcN, GDP-GlcNAc, CDP-GlcNAc, TDP-GlcNAc, and CMP-Leg) were lyophilized and desalted/purified using a Superdex Peptide 10/300 GL (Amersham Biosciences) column in 25 mM ammonium bicarbonate, pH 7.9. For further purity, the NDP-sugar samples above were subjected to anion-exchange chromatography (Mono Q 4.6/100 PE, Amersham Biosciences) using ammonium bicarbonate pH 7.9. Quantification of NDP-sugar preparations was determined using the molar extinction coefficients of CMP (ε260=7,400), GDP (ε260=11,500), TDP (ε260=8,700), and UDP (ε260=10,000).
CE analysis was performed using either a P/ACE 5510 or P/ACE MDQ system (Beckman Instruments, Mississauga, Ont) with diode array detection. The capillaries were bare silica 50 μm×50 cm, with a detector at 50 cm, and the running buffer was 25 mM sodium tetraborate pH 9.4. Samples were introduced by pressure injection for 6 sec, and the separation was performed at 18 kV for 20 min. Peak integration was done using the Beckman P/ACE station software.

[3] = target: T2, PglD (N-acetyltransferase) (Campylobacter jejuni subsp. jejuni serotype O:2, UniProt Q0P9D1); assay: PglD N-acetyltransferase reaction; type: biochemical; settings: acetyl-CoA
T2 construct: His6 (C); made in house; host or cells: E. coli BL21[DE3]

[4] = tested on: LegH (Cj1298, N-acetyltransferase); assay: LegH N-acetyltransferase reaction; type: biochemical, Campylobacter jejuni 11168; settings: acetyl-CoA
Protocol: as §1

[5] = tested on: LegC (Cj1320, PLP-dependent aminotransferase); assay: LegC aminotransferase reaction; type: biochemical, Campylobacter jejuni 11168; settings: L-Glu
Protocol: as §1

[6] = target: T3, His6LegG (Cj1328, NDP-sugar hydrolase/2-epimerase) (Campylobacter jejuni subsp. jejuni serotype O:2, UniProt Q0P8T0); assay: His6LegG activity and substrate flexibility (1H NMR, CE); type: biochemical, Campylobacter jejuni 11168
T3 construct: made in house; host or cells: E. coli BL21[DE3]
Protocol: as §2, with “The CMP-activation of legionaminic acid (X→XI) was performed using a 20 ml reaction containing approximately 0.2 mM of X, 50 mM MgCl2, 3 mM CTP, and 15 mg of LegFHis6 in 25 mM sodium phosphate pH 7.8, 25 mM NaCl, with incubation at 37° C. for 5 h, and then 25° C. for 72 h. Metabolite purification. Typically, reactions were passed through an Amicon Ultra-15 (10,000 molecular weight cut-off) or Ultra-4 (5,000 molecular weight cut-off) filter membrane before analysis. As required, NDP-sugar preparations (GDP-Glc, GDP-GlcN, GDP-GlcNAc, CDP-GlcNAc, TDP-GlcNAc, and CMP-Leg) were lyophilized and desalted/purified using a Superdex Peptide 10/300 GL (Amersham Biosciences) column in 25 mM ammonium bicarbonate, pH 7.9. For further purity, the NDP-sugar samples above were subjected to anion-exchange chromatography (Mono Q 4.6/100 PE, Amersham Biosciences) using ammonium bicarbonate pH 7.9.” left out, “(ε260=10,000). […]” for “(ε260=10,000).”

T2 sequence (Q0P9D1 whole entry): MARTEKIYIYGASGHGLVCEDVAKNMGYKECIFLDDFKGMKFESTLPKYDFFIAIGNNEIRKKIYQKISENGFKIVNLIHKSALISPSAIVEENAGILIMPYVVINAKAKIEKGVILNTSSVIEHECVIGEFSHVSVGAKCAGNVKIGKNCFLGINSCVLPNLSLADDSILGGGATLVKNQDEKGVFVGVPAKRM
T1 sequence (Q9PPA2 whole entry): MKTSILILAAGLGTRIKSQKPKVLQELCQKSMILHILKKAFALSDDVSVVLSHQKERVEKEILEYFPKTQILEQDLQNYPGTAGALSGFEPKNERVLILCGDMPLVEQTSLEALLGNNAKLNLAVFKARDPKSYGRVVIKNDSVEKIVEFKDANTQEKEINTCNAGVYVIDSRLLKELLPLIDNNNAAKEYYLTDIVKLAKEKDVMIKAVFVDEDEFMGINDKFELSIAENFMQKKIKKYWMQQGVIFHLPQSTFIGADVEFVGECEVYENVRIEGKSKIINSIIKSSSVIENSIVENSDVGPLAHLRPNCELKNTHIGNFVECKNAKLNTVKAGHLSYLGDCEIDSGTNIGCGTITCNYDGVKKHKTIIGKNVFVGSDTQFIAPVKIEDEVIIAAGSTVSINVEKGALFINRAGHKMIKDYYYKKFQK
T3 sequence (Q0P8T0 whole entry): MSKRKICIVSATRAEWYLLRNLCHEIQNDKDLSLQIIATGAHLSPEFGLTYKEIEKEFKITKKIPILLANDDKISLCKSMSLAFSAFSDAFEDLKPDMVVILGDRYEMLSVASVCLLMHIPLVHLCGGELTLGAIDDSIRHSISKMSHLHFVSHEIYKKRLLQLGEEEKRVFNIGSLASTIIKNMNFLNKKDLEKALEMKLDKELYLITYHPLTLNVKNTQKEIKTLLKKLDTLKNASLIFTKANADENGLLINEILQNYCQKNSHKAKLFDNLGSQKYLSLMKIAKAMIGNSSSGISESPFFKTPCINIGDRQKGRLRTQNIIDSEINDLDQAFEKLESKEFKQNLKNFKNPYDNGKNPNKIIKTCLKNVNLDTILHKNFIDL

Q: With `Nc1nc2c(ncn2C2OC(COP(=O)(O)OP(=O)(O)OC3OC(CO)C(O)C(O)C3N)C(O)C2O)c(=O)[nH]1` [IV, GDP-α-D-glucosamine] as the compound, how does the “GlmU N-acetylation of substrate (conversion of IV to V)” value [1] read?
A: not to completion

Q: And the “LegB reaction product formation” value ([2]; in the presence or absence of NAD(P)+)?
A: did not yield discernable product

Q: What does the source list for `CC(=O)NC1C(OP(=O)(O)OP(=O)(O)OCC2OC(n3cnc4c(=O)[nH]c(N)nc43)C(O)C2O)OC(C)C(N)C1O` [VII, GDP-4-amino-4,6-dideoxy-N-acetyl-α-D-glucosamine]?
A: PglD N-acetyltransfer of substrate [3]: able to catalyze N-acetyltransfer; LegH conversion of VII to VIII [4]: 100%

Q: Which “LegC aminotransfer of substrate” value [5] does the source give for `CC(=O)N[C@H]1[C@@H](OP(=O)(O)OP(=O)(O)OC[C@H]2O[C@@H](n3cnc4c(=O)[nH]c(N)nc43)[C@H](O)[C@@H]2O)O[C@H](C)C(=O)[C@@H]1O` [VI, GDP-2-acetamido-2,6-dideoxy-α-D-xylo-hexos-4-ulose] here?
A: efficient aminotransfer

Q: How did the “LegG turnover of substrate assessed by CE” value [6] turn out when `CC(=O)N[C@H]1[C@@H](OP(=O)(O)OP(=O)(O)OC[C@H]2O[C@@H](n3cnc4c(=O)[nH]c(N)nc43)[C@H](O)[C@@H]2O)O[C@H](CO)[C@@H](O)[C@@H]1O` [V, GDP-N-acetyl-α-D-glucosamine] was run?
A: moderate efficiency

Q: What about the “LegB C4,6 dehydration of substrate” value ([2]; NAD+ added exogenously) of the same compound?
A: efficient turnover

Q: What about the “LegB C4,6 dehydration of substrate” value ([2]; reaction with substrate and LegB only, no exogenous NAD(P)+) of the same compound?
A: failed
